Test results published in ChEMBL document CHEMBL1156349, “Junceol A, a new sesquiterpenoid from the sea pen Virgularia juncea” (2001).
≈ marks a conversion by molar mass, not a printed value.

Tested on: P388
Assay: Cytotoxicity against mouse P388 cells by MTT assay
Format: functional
Conditions: read-out: ED50 (the source's name)

| SMILES | EC50 [µg/mL] |
| --- | --- |
| C=C1CC[C@H](C(C)C)[C@@H]2[C@H]1[C@@H]1CC(=C)[C@@H](O)CC[C@](C)(O)[C@H]2O1 [CLADIELLISIN] | 2 (≈ 6.24 µM) |
| CC(=O)OC(C)(C)[C@H]1C=C2[C@@H](C)CC[C@@H](O)[C@]2(C)CC1 [JUNCEOL A] | 5.1 (≈ 18.2 µM) |
| C=C1CC[C@H](C(C)C)[C@@H]2[C@H]1[C@H]1C[C@](C)(O)[C@@H](O)CC[C@@](C)(O)[C@@H]2O1 [SCLEROPHYTIN A] | 2.3 (≈ 6.79 µM) |
